According to publication PMC4648050, “Discovery of Inhibitors of Trypanosoma brucei by Phenotypic Screening of a Focused Protein Kinase Library” (Chemmedchem, 2015):
In brackets after ≈: the same amount, converted by molar mass. Entries after “also recorded” stand apart in the source; their conditions may differ. Read-outs that look alike come from different tables or passages of the source.

Key:
T. b. brucei = experiment: Trypanosome proliferation assay; format: cell-based, Trypanosoma brucei brucei; conditions: for EC50: Trypanosoma brucei, read-out: EC50 T. b. brucei; for fold loss of activity (T. b. brucei EC50): relative to the comparator compound
Procedure: (§1) Trypanosome and MRC5 proliferation assay: Measurement of inhibition of the proliferation of MRC5 cells (human lung fibroblasts) and T. brucei bloodstream-stage cells was performed using a modification of a cell viability assay previously described.[35, 36] Compounds ([…] to 0.5 nM) were incubated with 2×10^3 cells per well in 0.2 mL of the appropriate culture medium (MEM with 10 % foetal bovine serum for MRC5 cells) in clear 96-well plates. Plates were incubated at 37 °C in the presence of 5 % CO2 for 69 h. Resazurin was then added to a final concentration of 50 μM, and plates were incubated as above for a further 4 h before being read on a BioTek Flx800 fluorescence plate reader.

[1] = test system: MRC5 cells (human lung fibroblasts); experiment: MRC5 proliferation assay; format: cell-based; conditions: geometric mean of two or more determinations
Procedure: as §1

[2] = Plasma protein binding (equilibrium dialysis); format: in vitro ADME; conditions: female, CD1; mouse plasma, equilibrium dialysis; read-out: PPB
Procedure: Plasma protein binding experiments: In brief, a 96-well equilibrium dialysis apparatus was used to determine the free fraction in plasma for each compound (HT Dialysis LLC, Gales Ferry, CT, USA). Membranes (12-14 kDa cutoff) were conditioned in deionised H2O for 60 min, followed by conditioning in 80:20 deionised H2O/EtOH for 20 min, and then rinsed in isotonic buffer before use. Female CD1 mouse plasma was removed from the freezer and allowed to thaw on the day of experiment. Thawed plasma was then centrifuged (Allegra […], Beckman Coulter, USA), spiked with test compound (10 μg g^-1), and 150 μL aliquots (n=6 replicate determinations) loaded into the 96-well equilibrium dialysis plate. Dialysis against isotonic buffer (150 μL) was carried out for 5 h in a temperature-controlled incubator at ∼37 °C (Barworld Scientific Ltd., UK) using an orbital microplate shaker at 125 rpm (Barworld Scientific). At the end of the incubation period, aliquots of plasma or buffer were transferred to micronic tubes (Micronic B.V., the Netherlands), and the composition in each tube was balanced with control fluid such that the volume of buffer to plasma is the same. Sample extraction was performed by the addition of 400 μL MeCN containing an appropriate internal standard. Samples were allowed to mix for 1 min and then centrifuged at 3000 rpm in 96-well blocks for 15 min (Allegra […], Beckman Coulter, USA). All samples were analysed by UPLC-MS/MS on a Quattro Premier XE Mass Spectrometer (Waters Corp.). The unbound fraction was determined as the ratio of the peak area in buffer to that in plasma.

[3] = Kinetic aqueous solubility (laser nephelometry); format: physicochemical; conditions: Milli-Q water with 2.5% DMSO, kinetic from dmso stock, range 250–12 μM, read-out: Aq. Sol. (aqueous kinetic solubility)
Procedure: Solubility experiments: The kinetic aqueous solubility of the test compounds was measured using laser nephelometry. Compounds were subject to serial dilution from 10 mM to 0.5 mM in DMSO. An aliquot was then mixed with Milli-Q H2O to obtain an aqueous dilution plate with a final concentration range of 250–12 μM, with a final DMSO concentration of 2.5 %. Triplicate aliquots were transferred to a flat-bottomed polystyrene plate which was immediately read on the NEPHELOstar (BMG Lab Technologies). The amount of laser scatter caused by insoluble particulates (relative nephelometry units, RNU) was plotted against compound concentration using a segmental regression fit, with the point of inflection being quoted as the compounds′ aqueous solubility (in μM).

[4] = test system: T. brucei bloodstream-stage cells; experiment: Static–cidal (SC) assay; format: cell-based, Trypanosoma brucei brucei; conditions: for EC50 / MCC: Trypanosoma brucei; for EC50: 48 h; for MCC: read-out: MCC (minimal cidal concentration); for Mode: static/cidal classification from growth curves; for mode of antiparasitic effect (in words): text and figure legend, at concentrations tested; for plateau of dose–response curve (inhibition): static–cidal dose–response curve
Procedure: Determination of cidality against T. brucei bloodstream-stage cells was performed using a static–cidal (SC) assay as previously reported.[26] Briefly, bloodstream-form trypanosomes were seeded into 384-well plates at 4×10^5 mL^−1 (50 μL per well), followed by immediate addition of resazurin (50 μM final) to one of the plates, and all plates were incubated at 37 °C, 5 % CO2. After 4 h the t0 plate was read using a PerkinElmer Victor 3 plate reader (λex=528 nm, λem=590 nm). The second plate was processed in the same manner 20 h later, and at 44 h the last plate was processed. The minimum cidal concentration (MCC) is defined as the lowest concentration of drug that results in a decrease of resorufin signal over time. For dose–response curves from this assay either a monophasic or a biphasic equation was used, depending on which one provided the best fit. For monophasic fits, the following four-parametric equation [Eq. (1)] was used:
in which A=percent inhibition at bottom, B=percent inhibition at top, C=EC50, D=slope, x=inhibitor concentration, and y=percent inhibition. Equation (2) was used for biphasic fits:
for which A=percent inhibition at mid-plateau, B=slope, C=log[SC EC50(1)], D=log[SC EC50(2)]. Thus SC EC50(1) is the EC50 for the first phase of the curve, and SC EC50(2) is that for the second phase. Inhibition at the bottom of the curve is fixed at 0 % and at the top, 100 %.

[5] = geometric mean of two or more determinations, standard cell viability (resazurin) assay
[6] = static cidal EC50, first site/phase, read-out: SC EC50(1)
[7] = static cidal EC50, second site/phase, read-out: SC EC50(2)
[8] = static–cidal assay in triplicate

Compound | EC50 (T. b. brucei; [5]) [µM] | EC50 [1] [µM] | fold loss of activity (T. b. brucei EC50) (T. b. brucei) [fold] | further results
COCCCn1c(=O)[nH]c2ncc(-c3ccc(OC(F)(F)F)cc3)nc21 [Compound 2] | 0.5 | 15 | – | –
C[C@H](c1ccccc1)n1c(=O)[nH]c2ncc(-c3ccc(O)cc3)nc21 [Compound 3] | 0.9 | – | – | –
C[C@@H](c1ccccc1)n1c(=O)[nH]c2ncc(-c3ccc(F)cc3)nc21 [Compound 8] | 0.09 | > 50 | – | –
O=c1[nH]c2ncc(-c3ccc(F)cc3)nc2n1Cc1ccccc1 [Compound 9, 1-Benzyl-6-(4-fluorophenyl)-1H-imidazo[4,5-b]pyrazin-2(3H)-one] | 0.5 | > 50 | – | –
Cn1c(=O)[nH]c2ncc(-c3ccc(F)cc3)nc21 [Compound 11] | 40 | > 50 | 100 | –
C[C@H](c1ccccc1)n1c(=O)[nH]c2ncc(-c3ccc(OC(F)(F)F)cc3)nc21 [Compound 15] | 1 | 39 | 10 | –
C[C@H](c1ccccc1)n1c(=O)[nH]c2nccnc21 [Compound 16] | 36 | > 50 | > 300 | –
C[C@H](c1ccccc1)n1c(=O)[nH]c2ncc(-c3cccc(F)c3)nc21 [Compound 17] | 0.3 | 44 | – | –
COc1ccc(-c2cnc3[nH]c(=O)n(C4CCCCC4)c3n2)cc1 [Compound 20] | 0.33 | 24 | – | fraction unbound at 5 h, 10 μg g^−1 [2]: 0.007
O=c1[nH]c2ncc(-c3ccc(CO)cc3)nc2n1C1CCCCC1 [Compound 21] | 0.4 | > 50 | 10 | fraction unbound at 5 h, 10 μg g^−1 [2]: 0.047
CNC(=O)c1ccc(-c2cnc3[nH]c(=O)n(C4CCCCC4)c3n2)cc1 [Compound 22] | 1.7 | > 50 | 30 | –
CN(C)Cc1ccc(-c2cnc3[nH]c(=O)n(C4CCCCC4)c3n2)cc1 [Compound 23] | 5 | > 50 | 50 | –
O=c1[nH]c2ncc(-c3cccc(CO)c3)nc2n1C1CCCCC1 [Compound 24] | 0.03 | > 50 | – | solubility kinetic [3]: > 250 µM; EC50 [4, 6]: 0.07 µM; EC50 [4, 7]: 30 µM; MCC [4, 8]: > 50000 nM; Mode [4]: S; mode of antiparasitic effect (in words) [4]: growth-slowing or static behaviour; also recorded: static at concentration tested
CC(=O)Nc1cccc(-c2cnc3[nH]c(=O)n(C4CCCCC4)c3n2)c1 [Compound 25] | 0.9 | > 50 | – | –
O=c1[nH]c2ncc(-c3ccccc3F)nc2n1C1CCCCC1 [Compound 26] | 0.06 | > 50 | – | solubility kinetic [3]: 20 µM (≈ 6.25 µg/mL); fraction unbound at 5 h, 10 μg g^−1 [2]: 0.007; EC50 [4, 6]: 0.09 µM; MCC [4, 8]: > 50000 nM; mode of antiparasitic effect (in words) [4]: growth-slowing or static behaviour
COc1ccccc1-c1cnc2[nH]c(=O)n(C3CCCCC3)c2n1 [Compound 27] | 0.9 | > 50 | – | –
O=c1[nH]c2ncc(-c3ccncc3)nc2n1C1CCCCC1 [Compound 29] | 0.07 | > 50 | – | –
O=c1[nH]c2ncc(N3CCOCC3)nc2n1C1CCCCC1 [Compound 32] | 0.05 | > 50 | – | solubility kinetic [3]: 220 µM (≈ 66.7 µg/mL)

Compound | EC50 (T. b. brucei; [5]) [µM] | EC50 [1] [µM] | fold loss of activity (T. b. brucei EC50) (T. b. brucei) [fold] | further results
CN1CCN(c2cnc3[nH]c(=O)n(C4CCCCC4)c3n2)CC1 [Compound 33] | 2 | > 50 | 50 | –
CC(C)n1c(=O)[nH]c2ncc(-c3ccccc3)nc21 [Compound 36] | 0.3 | > 50 | 10 | –
O=c1[nH]c2ncc(-c3ccccc3)nc2n1-c1ccccc1 [Compound 37] | > 50 | > 50 | – | –
COCC(C)n1c(=O)[nH]c2ncc(-c3ccccc3)nc21 (centres unmarked) [Compound 39, 1-(1-Methoxypropan-2-yl)-6-phenyl-1H-imidazo[4,5-b]pyrazin-2(3H)-one] | 0.2 | > 50 | – | EC50 [4, 6]: 0.41 µM; EC50 [4, 7]: 32 µM; MCC [4, 8]: > 50000 nM; Mode [4]: S; mode of antiparasitic effect (in words) [4]: growth-slowing or static behaviour
CCC(CO)n1c(=O)[nH]c2ncc(-c3ccccc3)nc21 (centres unmarked) [Compound 40] | 0.5 | > 50 | ~10 | –
CN(C)CCn1c(=O)[nH]c2ncc(-c3ccccc3)nc21 [Compound 41] | 13 | > 50 | – | –
CN1CCC(n2c(=O)[nH]c3ncc(-c4ccccc4)nc32)CC1 [Compound 42] | 2 | > 50 | – | –
C[C@H](c1ccccc1)n1c(=O)[nH]c2ccc(-c3ccc(F)cc3)cc21 [Compound 47] | 10 | – | 100 | –
C[C@H](c1ccccc1)n1c(=O)n(C)c2ncc(-c3ccc(F)cc3)nc21 [Compound 48] | 8 | – | 100 | –
CC(C)(c1ccccc1)n1c(=O)[nH]c2ncc(-c3cccnc3)cc21 [Compound 52] | 0.79 | 23 | – | –
O=c1[nH]c2ncc(-c3ccccc3CO)cc2n1C1CCCCC1 [Compound 53] | 0.67 | > 50 | ~13 | –
CC(C)(c1ccccc1)n1c(=O)[nH]c2ncc(-c3ccccc3CO)cc21 [Compound 54] | 15 | > 50 | – | –
O=c1[nH]c2ncc(N3CCOCC3)cc2n1C1CCCCC1 [Compound 57] | 0.33 | > 50 | ~7 | –
OCc1ccccc1-c1cnc2[nH]nc(C3CCCCC3)c2c1 [Compound 61] | 1.3 | > 50 | – | –
COCc1ccccc1-c1cnc2[nH]nc(C3CCCCC3)c2c1 [Compound 62] | 2.6 | > 50 | – | –
Nc1nc(N)nc(Nc2ccc([As]3SCC(CO)S3)cc2)n1 (centres unmarked) [melarsoprol, reference compound] | – | – | – | EC50 (T. b. brucei): 0.009 µM; EC50 ([4]; read-out: SC EC50(1)): 0.031 µM; MCC [4]: 100 nM; plateau of dose–response curve (inhibition) [4]: 100 % inhibition
N=C(N)c1ccc(OCCCCCOc2ccc(C(=N)N)cc2)cc1 [pentamidine, reference compound] | 0.004 | – | – | EC50 [4, 6]: 0.019 µM; MCC [4, 8]: 100 nM; plateau of dose–response curve (inhibition) [4]: 100 % inhibition; mode of antiparasitic effect (in words) [4]: cidal
